PMC12382740, “In Vitro and In Vivo Characterization of Novel Cathelicidin-Based Peptides with Antimicrobial Activity Against Pseudomonas aeruginosa” (Antibiotics, 2025)
Like-named read-outs stand apart in the source and are kept apart here. Bridge positions count the residues as written; N and C are the ends. Ends that are not written are not given here. Peptide text beside a SMILES is read from it.

Tests used:
Format in all cases: cell-based, Pseudomonas aeruginosa
[1] = test system: Colistin Susceptible P. aeruginosa
Experimental: (§1) The antimicrobial activity of the peptides was tested against a collection of P. aeruginosa, selected by their resistance or susceptibility to colistin and/or classified as MDR strains. The origin of the strains was either clinical, relevant to the current clinical situation, or commercial strains belonging to the American Type Culture Collection (ATCC, Manassas, VA, USA), which complemented the collection for comparison and control. For the initial activity screening of the 17 peptides, we tested them against P. aeruginosa ATCC strains 1211007 and 1211101. Both strains are multidrug-resistant; however, the key difference is that strain 1211007 is susceptible to colistin, whereas strain 1211101 is resistant to colistin.
(§2) Minimum Inhibitory Concentration (MIC) of the antimicrobial agents against bacterial strains was obtained through broth microdilution assays following a protocol based on the Clinical & Laboratory Standards Institute’s guidelines. Modifications regarding microplate material and broth were included when testing the peptides’ activity and are detailed below. Colistin MICs were obtained following recommendations of the joint CLSI-EUCAST Polymyxin Breakpoints Working Group using Cation Adjusted Mueller-Hinton Broth (90922, 500 g Sigma-Aldrich®, St. Louis, MO, USA), and strains Escherichia coli 13846 (mcr-1 positive) and P. aeruginosa ATCC 27853 were used as quality controls in all assays. Bacteria were cultured in Columbia Agar plates (Columbia Agar with 5% Sheep Blood 90 mm Stacker plates, Becton Dickinson, Franklin Lakes, NJ, USA) and incubated overnight at 37 °C. Polypropylene round-bottomed 96-well plates (-96-well Polypropylene Storage Microplates, 267334, Thermo Fischer Scientific, Waltham, MA, USA) were used to prevent peptide binding to plate walls. AST broth (BD Phoenix™ AST broth, 8 mL, 246003, Becton Dickinson, Franklin Lakes, NJ, USA) was used when testing the peptides’ activity. […] Three biological and technical replicates were performed per strain.

[2] = test system: Colistin-Resistant P. aeruginosa
Experimental: as §1, §2

[3] = test system: P. aeruginosa Strain ATCC 121110
Experimental: as §1, §2

[4] = test system: P. aeruginosa Strain 121007
Experimental: as §1, §2

[5] = test system: P. aeruginosa strain panel; conditions: for MIC50 / MIC90: panel of 15 P. aeruginosa strains
Experimental: as §1, §2

[6] = colistin-susceptible P. aeruginosa, value in brackets
[7] = colistin-resistant P. aeruginosa, value in brackets
[8] = Strain ATCC 121110, value in brackets
[9] = Strain 121007, value in brackets
[10] = colistin-susceptible P. aeruginosa
[11] = colistin-resistant P. aeruginosa

GLVRKGGEKFGEKLRKIGQKIKEFFQKLALEIEQ [r-CRAMP]
MIC ([1]; Colistin Susceptible): > 256 µg/mL | MIC [1, 6]: > 65 µM | MIC ([2]; Colistin-Resistant): 64 µg/mL | MIC [2, 7]: 16 µM

H-IKEKLKKIGQKIQGLLPKL-OH [CAP-18_19]
MIC ([3]; ATCC 121110): > 64 µg/mL | MIC [3, 8]: > 29 µM | MIC ([4]; Strain 121007): > 64 µg/mL | MIC [4, 9]: > 29 µM

CC[C@H](C)[C@@H]1NC(=O)[C@H](CCC(=O)O)NC(=O)[C@@H]2CSSC[C@@H]3NC(=O)[C@H](Cc4ccc(O)cc4)NC(=O)[C@@H](NC(=O)[C@@H](NC(=O)[C@H](C)N)[C@@H](C)O)CSSC[C@@H](C(=O)N[C@@H](CCCNC(=N)N)C(=O)O)NC(=O)[C@H](CSSC[C@H](NC(=O)[C@H](CCCNC(=N)N)NC(=O)CNC(=O)[C@H]([C@@H](C)O)NC(=O)[C@H](CCCNC(=N)N)NC3=O)C(=O)N[C@@H](C)C(=O)N[C@@H]([C@@H](C)O)C(=O)N[C@@H](CCCNC(=N)N)C(=O)N[C@@H](CCC(=O)O)C(=O)N[C@@H](CO)C(=O)N[C@@H](CC(C)C)C(=O)N[C@@H](CO)C(=O)NCC(=O)N[C@@H](C(C)C)C(=O)N2)NC(=O)[C@H](CC(C)C)NC(=O)[C@H](CCCNC(=N)N)NC(=O)[C@H](Cc2ccc(O)cc2)NC(=O)[C@H](CC(C)C)NC(=O)[C@H](CCCNC(=N)N)NC(=O)CNC(=O)[C@H](CO)NC1=O [α-defensin 5] (H-ATCYCRTGRCATRESLSGVCEISGRLYRLCCR-OH; disulfide 3-31, 5-20, 10-30; N-terminus and C-terminus assumed)
MIC [1, 10]: 50 µg/mL | MIC [1, 6]: 14 µM

AKKVFKRLEKLFSKIQNDK [HP 2-20]
MIC [1, 10]: > 256 µg/mL | MIC [1, 6]: > 110 µM | MIC [2, 11]: > 256 µg/mL | MIC [2, 7]: > 110 µM

SSLLEKGLDGAKKAVGGLGKLGKDAVEDLESVGKGAVHDVKDVLDSVL [Dermicidin]
MIC ([1]; Colistin Susceptible): > 256 µg/mL | MIC [1, 6]: > 53 µM | MIC ([2]; Colistin-Resistant): > 256 µg/mL | MIC [2, 7]: > 53 µM

H-IKEKLKKIGQKIQG-OH [CAP-18_14]
MIC ([3]; ATCC 121110): > 64 µg/mL | MIC [3, 8]: > 40 µM | MIC ([4]; Strain 121007): > 64 µg/mL

KYYGNGVSCNKKGCSVDWGKAIGIIGNNSAANLATGGAAGWSK (disulfide 9-14) [Mundticin]
MIC ([1]; Colistin Susceptible): > 256 µg/mL | MIC [1, 6]: > 60 µM | MIC ([2]; Colistin-Resistant): > 256 µg/mL | MIC [2, 7]: > 60 µM

RRRPRPPYLPRPRPPPFFPPRLPPRIPPGFPPRFPPRFP-NH2 (C-terminus assumed) [PR39]
MIC [1, 6]: 14 µM | MIC [2, 7]: 7 µM

H-GLRKRLRKFRNKIKEKLKKIG-OH [CAP-18_21]
MIC ([3]; ATCC 121110): 32 µg/mL | MIC [3, 8]: 12 µM | MIC ([4]; Strain 121007): 32 µg/mL | MIC [4, 9]: 12 µM

CC[C@H](C)[C@@H]1NC(=O)[C@@H](NC(=O)[C@@H](NC(=O)[C@@H]2CCCN2C(=O)[C@H](Cc2ccccc2)NC(=O)[C@H](Cc2c[nH]cn2)NC(=O)[C@@H](NC(=O)[C@@H](N)CC(=O)O)[C@@H](C)O)[C@@H](C)CC)CSSC[C@@H](C(=O)N[C@@H](CCCCN)C(=O)N[C@H](C(=O)O)[C@@H](C)O)NC(=O)[C@@H]2CSSC[C@@H]3NC(=O)[C@@H]4CSSC[C@H](NC(=O)[C@H](Cc5ccccc5)NC1=O)C(=O)N[C@@H](CSSC[C@H](NC(=O)[C@H](CCCCN)NC(=O)[C@H](CO)NC(=O)[C@H](CCCNC(=N)N)NC(=O)[C@H](Cc1c[nH]cn1)NC3=O)C(=O)NCC(=O)N[C@@H](CCSC)C(=O)N2)C(=O)NCC(=O)N4 [Hepcidin]
MIC [1, 10]: > 256 µg/mL | MIC [1, 6]: > 92 µM | MIC [2, 11]: > 256 µg/mL | MIC [2, 7]: > 92 µM

GLLRKGGEKIGEKLKKIGQKIKNFFQKLVPQPEQ [CRAMP]
MIC ([2]; Colistin-Resistant): 32 µg/mL | MIC [2, 7]: 8 µM

H-FRNKIKEKLKKIGQKIQG-OH [CAP-18_18]
MIC ([3]; ATCC 121110): > 64 µg/mL | MIC [3, 8]: > 30 µM | MIC ([4]; Strain 121007): > 64 µg/mL | MIC [4, 9]: > 30 µM

ISRLAGLLRKGGEKIGEKLKKIGQKIKNFFQKLVPQPEQ [CRAMP 1-39]
MIC ([2]; Colistin-Resistant): 32 µg/mL | MIC [2, 7]: 7 µM

GIINTLQKYYCRVRGGRCAVLSCLPKEEQIGKCSTRGRKCCRRKK (disulfide 11-40, 18-33, 23-41) [β-defensin 3]
MIC ([1]; Colistin Susceptible): > 50 µg/mL | MIC [1, 6]: > 10 µM | MIC ([2]; Colistin-Resistant): > 50 µg/mL | MIC [2, 7]: > 10 µM

CC[C@H](C)[C@@H]1NC(=O)[C@@H]2CSSC[C@@H]3NC(=O)[C@H](Cc4ccccc4)NC(=O)[C@H](C)NC(=O)[C@H](Cc4c[nH]c5ccccc45)NC(=O)[C@H](CC(C)C)NC(=O)[C@H](CCCNC(=N)N)NC(=O)CNC(=O)[C@H](CCC(N)=O)NC(=O)[C@H](Cc4ccc(O)cc4)NC(=O)[C@H]([C@@H](C)CC)NC(=O)[C@H](CSSC[C@H](NC(=O)[C@H](Cc4ccc(O)cc4)NC(=O)[C@@H](N)CSSC[C@@H](C(=O)O)NC3=O)C(=O)N[C@@H](CCCNC(=N)N)C(=O)N[C@@H]([C@@H](C)CC)C(=O)N3CCC[C@H]3C(=O)N[C@@H](C)C(=O)N2)NC(=O)[C@H]([C@@H](C)O)NC(=O)CNC(=O)[C@H](Cc2ccc(O)cc2)NC(=O)[C@H](CCCNC(=N)N)NC(=O)[C@H](CCCNC(=N)N)NC(=O)[C@H](CCC(=O)O)NC(=O)CNC(=O)[C@H](C)NC1=O [α-defensin 2] (H-CYCRIPACIAGERRYGTCIYQGRLWAFCC-OH; disulfide 1-29, 3-18, 8-28; N-terminus and C-terminus assumed)
MIC ([1]; Colistin Susceptible): > 50 µg/mL | MIC [1, 6]: > 15 µM | MIC ([2]; Colistin-Resistant): > 50 µg/mL | MIC [2, 7]: > 15 µM

Colistin [reference compound]
MIC50 [5]: ≤ 0.125 µg/mL | MIC90 [5]: 64 µg/mL | MIC50 ([5]; value in brackets): ≤ 0.11 µM | MIC90 ([5]; value in brackets): 55 µM | MIC ([5]; strain 12-1110 S1): ≤0.125 µg/mL | MIC ([5]; strain 15-0307 S4): ≤0.125 µg/mL | MIC ([5]; strain 15-0803 S3): ≤0.125 µg/mL | MIC ([5]; strain 21-0308 R2): 64 µg/mL | MIC ([5]; strain 21-0410 S5): ≤0.125 µg/mL | MIC ([5]; strain 21-0505 S2): ≤0.125 µg/mL | MIC ([5]; strain 36a): 0.25 µg/mL | MIC ([5]; strain 38a): ≤0.125 µg/mL | MIC ([5]; strain 27853): ≤0.125 µg/mL | MIC ([5]; strain 16359347-2 R3): 64 µg/mL | MIC ([5]; strain C1): 0.25 µg/mL | MIC ([5]; strain C2): 0.5 µg/mL | MIC ([5]; strain C3): ≤0.125 µg/mL | MIC ([5]; strain C4): 0.25 µg/mL | MIC ([5]; strain C5): ≤0.125 µg/mL | MIC [1, 10]: 0.75 µg/mL | MIC [1, 6]: 0.7 µM | MIC [2, 11]: 32 µg/mL | MIC [2, 7]: 28 µM

CC[C@H](C)[C@@H]1NC(=O)CNC(=O)[C@H](CCSC)NC(=O)[C@H](C(C)C)NC(=O)[C@H]([C@@H](C)O)NC(=O)[C@@H]2CSSC[C@@H]3NC(=O)[C@H](Cc4c[nH]cn4)NC(=O)[C@@H](NC(=O)[C@@H](NC(=O)[C@H](Cc4ccccc4)NC(=O)[C@H](C)N)[C@@H](C)O)CSSC[C@@H](C(=O)N[C@@H](CC(C)C)C(=O)O)NC(=O)[C@H](CSSC[C@H](NC(=O)[C@H](CO)NC(=O)[C@H](CCCNC(=N)N)NC(=O)[C@H](CCCNC(=N)N)NC3=O)C(=O)N[C@@H](Cc3ccc(O)cc3)C(=O)N[C@@H](CO)C(=O)N[C@@H]([C@@H](C)O)C(=O)N[C@@H](CCC(=O)O)C(=O)N[C@@H](Cc3ccc(O)cc3)C(=O)N[C@@H](CO)C(=O)N[C@@H](Cc3ccc(O)cc3)C(=O)NCC(=O)N[C@@H]([C@@H](C)O)C(=O)N2)NC(=O)[C@H](Cc2ccccc2)NC(=O)[C@H](CCCNC(=N)N)NC(=O)[C@H](Cc2c[nH]cn2)NC(=O)[C@H](CC(N)=O)NC1=O [α-defensin 6]
MIC ([1]; Colistin Susceptible): > 50 µg/mL | MIC [1, 6]: > 13 µM | MIC ([2]; Colistin-Resistant): > 50 µg/mL | MIC [2, 7]: > 13 µM

GIGDPVTCLKSGAICHPVFCPRRYKQIGTCGLPGTKCCKKP (disulfide 8-37, 15-30, 20-38) [β-defensin 2]
MIC [1, 10]: > 50 µg/mL | MIC [1, 6]: > 12 µM | MIC [2, 11]: > 50 µg/mL | MIC [2, 7]: > 12 µM
